From EP4659758A1, “ANTI-AGING COMPOSITION” (Mitsubishi Corporation Life Sciences Limited, priority 2023, dated 2024)

Tests used:
Format in all cases: cell-based
tyrosinase = molecular target: T1, tyrosinase (Mus musculus, UniProt P11344); assay: Tyrosinase activity suppression test (L-DOPA, absorbance at 490 nm, cell extract); conditions: 0.05 mM or 0.1 mM at melanin induction
T1 construct: a protein extract containing tyrosinase derived from B16 mouse melanoma cells; endogenous in cells; host or cells: B16 mouse melanoma cells, alpha-MSH induced; RIPA buffer lysate supernatant
T1 sequence (P11344 19-533): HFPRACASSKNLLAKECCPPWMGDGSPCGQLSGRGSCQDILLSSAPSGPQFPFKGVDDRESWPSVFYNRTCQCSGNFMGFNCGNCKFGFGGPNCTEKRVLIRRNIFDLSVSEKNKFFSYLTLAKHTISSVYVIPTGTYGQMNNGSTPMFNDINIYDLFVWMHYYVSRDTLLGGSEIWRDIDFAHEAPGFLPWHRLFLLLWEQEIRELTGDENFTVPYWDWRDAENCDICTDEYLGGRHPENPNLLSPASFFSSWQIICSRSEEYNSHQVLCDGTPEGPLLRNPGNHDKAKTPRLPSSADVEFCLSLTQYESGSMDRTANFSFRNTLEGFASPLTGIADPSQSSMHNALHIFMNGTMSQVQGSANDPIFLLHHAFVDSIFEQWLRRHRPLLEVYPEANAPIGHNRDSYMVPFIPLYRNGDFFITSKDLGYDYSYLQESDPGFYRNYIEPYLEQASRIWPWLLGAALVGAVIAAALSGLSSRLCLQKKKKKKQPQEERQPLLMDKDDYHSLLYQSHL
Excerpt: In addition, the tyrosinase activity in the present invention can be confirmed by adding L-DOPA having a known concentration to a protein extract containing tyrosinase derived from B16 mouse melanoma cells in which melanin is induced by a melanin inducer such as α-MSH (melanocyte stimulating hormone) to react, measuring the absorbance at 490 nm, and correcting the absorbance with the protein concentration in the protein extract. The tyrosinase activity inhibitory effect can be known by comparing the value of the absorbance at 490 nm corrected by the protein concentration measured by adding the test substance at the time of melanin induction and the same operation with the value of the test section to which the test substance is not added.
B16 mouse melanoma cells were seeded in a 6 well plate (2.0 × 10^4 cells/well), and cultured for 24 hours in D-MEM medium to which 5% fetal bovine serum was added with respect to the medium (5%CO2, 37°C). […] The protein concentration of the obtained sample was measured by the BCA method.
The same operation was performed except that melanin induction was not performed, and a reference sample was obtained. […] Fifty µL of a sample of each test section was placed in a 96 well plate (n=3), 50 µL of 0.8 mg/mL L-DOPA was added, the mixture was reacted at 37°C for 1 hour, and then the absorbance at 490 nm was measured with a microplate reader. […]

Normal human fibroblasts [1] = assay: Suppression of decrease in hyaluronic acid production capability due to aging induction (ELISA); conditions: 50 µM or 100 µM, 0.5 mM hydrogen peroxide, 24 hours; for hyaluronic acid production amount: relative value, compared with only aging induction
Procedure: Normal human fibroblasts were seeded in 24 well plates (8.0 × 10^4 cells/well, N = 3) and precultured for 24 hours (5% CO2, 37°C). As a medium, MEM-α, nucleosides medium (Gibco) containing fetal bovine serum (10% of serum-free medium was externally added) was used. Thereafter, the wells were washed once with PBS (-), then replaced with MEM-α, nucleoside medium containing fetal bovine serum (5% of serum-free medium was externally added) dissolved so that the final concentration of Sample 1 or Sample 2 was 50 µM or 100 µM, and further incubated for 30 minutes. Thereafter, fibroblasts were treated with a medium adjusted so that the final concentration of hydrogen peroxide was 0.5 mM to induce aging. Thereafter, the culture medium was changed to MEM-α, nucleoside medium containing fetal bovine serum (5% of serum-free culture medium was externally added) and incubated for 24 hours, and then the amount of hyaluronic acid was quantified by ELISA using a hyaluronic acid quantification kit (Cosmo Bio Inc.).
The hyaluronic acid production amount in each test section was shown as a relative value when the hyaluronic acid production amount in each sample and the test section in which aging induction was not performed was taken as 100. Regarding the hyaluronic acid production amount, a significant difference test (t-test, two-tailed) between the two groups of the test section for Sample 1 and the test section for which only the aging induction was performed respectively, and a significant difference test between the test section for Sample 2 and the test section for which only the aging induction was performed were each performed, and "*(p < 0.05)" was marked for those in which a significant difference was recognized.

[2] = tested on: Normal human epidermal keratinocytes; assay: Suppression of decrease in proliferation capability after hydrogen peroxide aging induction (MTT assay); conditions: 50 µM or 100 µM, 0.5 mM hydrogen peroxide aging induction; relative to untreated non-induced = 100; compared with only aging induction
Procedure: Normal human epidermal keratinocytes were seeded in 96 well plates (1.0 × 10^4 cells/well, N = 3) and precultured for 24 hours (5%CO2, 37°C). As a medium, a commercially available keratinocyte growth medium (PromoCell) was used. Thereafter, the wells were washed once with PBS (-), then replaced with a keratinocyte growth medium dissolved so that the final concentration of Sample 1 was 50 µM or 100 µM, and further incubated for 30 minutes. Thereafter, normal human epidermal keratinocytes were treated with a medium adjusted to have a final concentration of hydrogen peroxide of 0.5 mM to induce aging. Thereafter, an MTT assay was performed according to a conventional method, and the survival rate of normal human epidermal keratinocytes was calculated as a relative value when the survival rate of cells in a test section in which neither the treatment with oxidized glutathione trisulfide nor the aging induction was performed was taken as 100.
For comparison, a test section in which only aging induction was performed without treatment with oxidized glutathione trisulfide was set.
Regarding the survival rate, a significant difference test (t-test, two-tailed) between the two groups of the test section of Sample 1 and the test section in which only aging induction was performed was performed respectively.

Normal human fibroblasts [3] = assay: as above; conditions: 50 µM or 100 µM, 0.5 mM hydrogen peroxide aging induction; relative to untreated non-induced = 100; compared with only aging induction and with 100 µM reduced glutathione, p < 0.005
Procedure: Normal human fibroblasts were seeded in 96 well plates (3.0 × 10^3 cells/well, N = 3) and precultured for 24 hours (5% CO2, 37°C). As a medium, MEM-α, nucleosides medium (Gibco) containing fetal bovine serum (10% of serum-free medium was externally added) was used. Thereafter, the wells were washed once with PBS (-), then replaced with MEM-α, nucleoside medium containing fetal bovine serum (5% of serum-free medium was externally added) dissolved so that the final concentration of Sample 1 or Sample 2 was 50 µM or 100 µM, and further incubated for 30 minutes. Thereafter, fibroblasts were treated with a medium adjusted so that the final concentration of hydrogen peroxide was 0.5 mM to induce aging. Thereafter, an MTT assay was performed according to a conventional method, and the survival rate of fibroblasts was calculated as a relative value when the survival rate of cells in the test section in which neither treatment nor aging induction was performed was taken as 100.
For comparison, a test section in which only aging induction was performed and a test section in which reduced glutathione was 100 µM was set instead of Sample 1. […]

B16 mouse melanoma cells = assay: Melanin production suppression test in cultured cells (absorbance at 405 nm); conditions: α-MSH 200 nM induction; for melanin production amount: 0.02 mM or 0.05 mM, relative to reference sample (induction only) = 100, p < 0.01
Procedure: B16 mouse melanoma cells were seeded in a 6 well plate (2.0 × 10^4 cells/well), and cultured for 24 hours in D-MEM medium to which 5% fetal bovine serum was added with respect to the medium (5%CO2, 37°C). […] The obtained pellets were washed twice with PBS (-), 150 µL of a 1 M sodium hydroxide solution was then added, and the mixture was treated at 100°C for 10 minutes to dissolve the pellets, thereby preparing a reference sample. […] One hundred µL of a sample of each test section was added to a 96 well plate, and the absorbance at 405 nm was measured with a microplate reader (n = 3). […] The significant difference test was performed on the measured value of the reference sample by the Dunnett method (*p < 0.05, **p < 0.01.).

[4] = tested on: Normal human epidermal keratinocytes; assay: Suppression of decrease in hyaluronic acid production capability due to aging induction (ELISA); conditions: 50 µM, 0.5 mM hydrogen peroxide, 24 hours
Procedure: Normal human epidermal keratinocytes were seeded in 24 well plates (1.0 × 10^5 cells/well, N = 3) and precultured for 24 hours (5%CO2, 37°C). As a medium, a commercially available keratinocyte growth medium (PromoCell) was used. Thereafter, the wells were washed once with PBS (-), then replaced with a keratinocyte growth medium dissolved so that the final concentration of Sample 1 was 50 µM, and further incubated for 30 minutes. Thereafter, normal human epidermal keratinocytes were treated with a medium adjusted to have a final concentration of hydrogen peroxide of 0.5 mM to induce aging. Thereafter, the medium was replaced with a new keratinocyte growth medium and incubated for 24 hours, and then the amount of hyaluronic acid was quantified by an ELISA method using a hyaluronic acid quantification kit (Cosmo Bio). For comparison, a test section not treated with oxidized glutathione trisulfide was provided.
The hyaluronic acid production amount in each of the test sections was shown as a relative value when the hyaluronic acid production amount in the test section in which neither oxidized glutathione trisulfide treatment nor aging induction was performed was taken as 100. […]

| SMILES | tyrosinase activity (tyrosinase; compared with reference sample (no melanin induction) = 100) | tyrosinase activity (tyrosinase; compared with test section with only melanin induction) | hyaluronic acid production capability (Normal human fibroblasts [1]; compared with test sections without aging induction, no significant difference) | hyaluronic acid production amount (Normal human fibroblasts [1]) | survival rate of normal human epidermal keratinocytes (cell proliferation rate) [2] | survival rate of fibroblasts (cell proliferation rate) (Normal human fibroblasts [3]) | melanin production amount (B16 mouse melanoma cells) | hyaluronic acid production capability ([4]; compared with control group without aging induction, no significant difference) | hyaluronic acid production amount ([4]; relative value, compared with only aging induction) | melanin production suppressing effect (B16 mouse melanoma cells; 3 mM, compared with 0.02 mM Sample 1) |
| --- | --- | --- | --- | --- | --- | --- | --- | --- | --- | --- |
| N[C@@H](CCC(=O)N[C@@H](CSSSC[C@H](NC(=O)CC[C@H](N)C(=O)O)C(=O)NCC(=O)O)C(=O)NCC(=O)O)C(=O)O [Sample 1, oxidized glutathione trisulfide] | same degree of tyrosinase activity as the reference sample | significantly lower than the test section in which only melanin induction was performed | same hyaluronic acid production capability as those of the test sections that did not induce aging | significantly higher than that in the test section of only aging induction | significant cell proliferation rate | significant cell proliferation rate | significantly low | same hyaluronic acid production capability as that of the control group in which aging is not induced | significantly higher than that in the test section of only aging induction | – |
| CC(=O)N[C@@H](CSSSC[C@H](NC(C)=O)C(=O)O)C(=O)O [Sample 2, oxidized NAC trisulfide] | – | – | – | significantly higher than that in the test section of only aging induction | – | significant cell proliferation rate | significantly low | – | – | – |
| N[C@@H](CCC(=O)N[C@@H](CS)C(=O)NCC(=O)O)C(=O)O [reduced glutathione, reference compound] | – | – | – | – | – | – | – | – | – | same melanin production suppressing effect as the 0.02 mM test section of Sample 1 |
